Laboratory results taken from patent publication US20250122171A1, “Substituted Amine Compounds, Compositions and Methods of Use” (Deep Apple Therapeutics, Inc., priority 2023, published 2025).

Columns and labels:
Format in all cases: cell-based
human MRGPRX2 = target: T1, human MRGPRX2 (Homo sapiens, UniProt Q96LB1); assay: MRGPRX2 Activity Assay (IP-1 HTRF, antagonist mode); settings: FlpIn TRex-MRGPRX2-HEK293 cells; versus 1 μM Cortistatin-14 agonist; 30 minutes preincubation
T1 construct: expressed in transfected cells; host or cells: FlpIn TRex HEK293 (TRex-MRGPRX2-HEK), doxycycline-induced
T1 sequence (Q96LB1 1-330): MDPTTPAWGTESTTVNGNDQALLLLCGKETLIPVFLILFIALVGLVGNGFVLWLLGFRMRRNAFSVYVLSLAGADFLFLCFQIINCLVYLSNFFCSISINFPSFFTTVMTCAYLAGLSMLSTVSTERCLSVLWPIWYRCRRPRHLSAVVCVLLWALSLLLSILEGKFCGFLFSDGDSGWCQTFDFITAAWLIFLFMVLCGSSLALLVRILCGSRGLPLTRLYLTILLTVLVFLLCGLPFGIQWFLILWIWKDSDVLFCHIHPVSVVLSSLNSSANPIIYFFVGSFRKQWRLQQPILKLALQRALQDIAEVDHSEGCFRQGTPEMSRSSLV
How it was run: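 Doxycycline-induced (100 ng/mL, 18-24 h) TRex HEK293 cells stably expressing human MRGPRX2, in HBSS/20 mM HEPES/0.1% BSA/10 mM LiCl. Compounds (top final 30 uM, 1% DMSO) preincubated 30 min, then agonist stimulation 1 h at 37° C without wash. IP-1 accumulation read by HTRF; IC50 from 4-parameter fit.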

LAD-2 cells [1] = assay: LAD2 Degranulation Assay (Protocol 1), β-hexosaminidase release; settings: Homo sapiens, 1 μM Cortistatin-14, 30 minute preincubation, top concentration 3 μM
Protocol: (§1) LAD-2 cells were maintained at 37° C. with 5% CO2 and grown in complete StemPro-34 media supplemented with 1% L-Glutamate, 1% penicillin/streptomycin, and 250 ng/mL human SCF.
On the day of experiment, cells were collected by centrifugation and seeded in 384-well assay plates, at 4,000 cells per well in 10 μl freshly made assay buffer (10 mM HEPES, 130 mM NaCl, 5 mM KCl, 1.8 mM CaCl2), 1.0 mM MgCl2, 5.6 mM glucose, 0.1% BSA, pH=7.40). For dose-response assays, compounds solubilized in 100% DMSO at 30 mM were serially diluted (1:3) first in 100% DMSO, and 2 intermediate dilutions with assay buffer were used to establish a final top concentration of 3 μM (in assay plate). Final DMSO concentration was kept constant at 0.1% across plates for all assays. Cortistatin-14 at 30 mM stock concentration was solubilized in HBSS+0.1% BSA, stored at −20° C. in 5 μl aliquots and discarded after one freeze-thaw cycle. Final concentration of agonist used in both dose-response and single point assays was 1 μM, prepared in assay buffer.
(§2) Antagonist equilibrium was established with 30 minute preincubation, followed by no wash, direct addition, and stimulation of agonist for 30 minutes at 37° C. For detection of β-hexosaminidase activity, assay plates were centrifuged and 5 μl of cell-free supernatant from each assay well was transferred to a black-walled black-bottomed 384-well plate. Substrate solution (1 mM 4-Methylumbelliferyl N-acetyl-β-D-glucosaminide in citrate buffer, pH=4.5, 15 μl) was added to each well and plates were incubated for 1 hour at 37° C. The plate was read on an EnVision XCite plate reader for umbelliferone fluorescence intensity (λex=355 nm, λem=460 nm). Background-subtracted data was analyzed using either GraphPad Prism or a custom Python script to calculate IC50 using either Log[Antagonist] vs. response (4 parameter) nonlinear regression (dose-response assays).

LAD-2 cells [2] = assay: LAD2 Degranulation Assay (Protocol 2), β-hexosaminidase release; settings: Homo sapiens; for IC50: 0.5 μM Cortistatin-14, 2 h preincubation, cells without SCF 18-24 hours, top concentration 3 μM
Protocol: as §1
18-24 hours prior to experiment, LAD-2 cells were collected and transferred to growth media without SCF. On the day of experiment, cells were collected by centrifugation and seeded in 384-well assay plates, at 4,000 cells per well in 17 μl freshly made assay buffer (10 mM HEPES, 137 mM NaCl, 2.7 mM KCl, 1.8 mM CaCl2), 1.0 mM MgCl2, 5.6 mM glucose, 0.4 mM NaH2PO4, 0.04% BSA, pH=7.40). For dose-response assays, compounds solubilized in 100% DMSO at 30 mM were serially diluted (1:3) first in 100% DMSO, and 2 intermediate dilutions with assay buffer were used to establish a final top concentration of 3 μM (in assay plate). For single point assays, dilution of DMSO stocks to 250 nM (in assay plate) was performed in the same manner as described for dose-response assays. Final DMSO concentration was kept constant at 0.1% across plates for all assays. Cortistatin-14 at 30 mM stock concentration was solubilized in HBSS+0.1% BSA, stored at −20° C. in 5 μl aliquots and discarded after one freeze-thaw cycle. Final concentration of agonist used in both dose-response and single point assays was 0.5 μM, prepared in assay buffer.
as §2, with “with 2 h” for “with 30 minute”, “[…])” for “15 μl)”, “(dose-response assays) or % control β-hexosaminidase activity (single point” for “(dose-response”

hERG channel = target: T2, hERG channel (Homo sapiens, UniProt Q12809); assay: hERG Safety Evaluation by Manual Patch-Clamp System; settings: hERG-T-Rex 293 cells, whole cell patch-clamp at 35° C.
T2 construct: host or cells: hERG-T-Rex 293 (HEK 293), doxycycline-induced
T2 sequence (Q12809 whole entry): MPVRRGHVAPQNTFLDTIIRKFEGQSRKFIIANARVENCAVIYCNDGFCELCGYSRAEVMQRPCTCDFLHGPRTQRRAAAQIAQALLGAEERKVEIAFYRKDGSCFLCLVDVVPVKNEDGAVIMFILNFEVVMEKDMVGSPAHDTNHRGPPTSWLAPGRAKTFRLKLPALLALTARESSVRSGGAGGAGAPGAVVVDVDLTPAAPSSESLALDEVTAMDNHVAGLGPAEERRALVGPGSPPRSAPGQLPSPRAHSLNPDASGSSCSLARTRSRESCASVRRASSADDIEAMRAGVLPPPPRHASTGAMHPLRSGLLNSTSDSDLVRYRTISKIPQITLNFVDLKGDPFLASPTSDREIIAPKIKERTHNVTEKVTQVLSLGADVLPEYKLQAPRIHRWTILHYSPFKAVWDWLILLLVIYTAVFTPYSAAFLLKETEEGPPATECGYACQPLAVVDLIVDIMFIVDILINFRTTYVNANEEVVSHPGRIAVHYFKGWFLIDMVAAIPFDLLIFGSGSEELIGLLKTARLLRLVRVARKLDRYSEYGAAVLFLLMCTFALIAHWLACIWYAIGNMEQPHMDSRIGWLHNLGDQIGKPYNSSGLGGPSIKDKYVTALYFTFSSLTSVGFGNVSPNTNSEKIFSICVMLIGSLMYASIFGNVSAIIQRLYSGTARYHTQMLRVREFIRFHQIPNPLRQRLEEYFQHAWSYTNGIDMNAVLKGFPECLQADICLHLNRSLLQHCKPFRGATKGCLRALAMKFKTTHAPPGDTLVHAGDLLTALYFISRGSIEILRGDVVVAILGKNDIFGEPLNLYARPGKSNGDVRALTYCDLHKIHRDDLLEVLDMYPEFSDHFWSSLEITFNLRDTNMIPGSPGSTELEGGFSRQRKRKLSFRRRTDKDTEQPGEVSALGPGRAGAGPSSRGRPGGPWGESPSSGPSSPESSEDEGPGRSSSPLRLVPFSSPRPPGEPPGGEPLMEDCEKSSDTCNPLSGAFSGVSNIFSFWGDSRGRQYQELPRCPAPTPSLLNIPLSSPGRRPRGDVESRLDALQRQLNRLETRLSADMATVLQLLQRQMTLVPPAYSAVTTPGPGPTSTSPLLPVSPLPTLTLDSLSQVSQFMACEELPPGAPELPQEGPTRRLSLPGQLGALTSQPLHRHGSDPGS
Protocol: A stable BIEK 293 cell line with inducible hERG channel expression (hERG-T-Rex 293, Invitrogen cat #K1236) was cultured in medium containing 85% DMVEM, 10% dialyzed FBS, 0.1 mM NEAA, 25 mM HEPES, 100 U/mL Penicillin-Streptomycin, 5 μg/mL Blasticidin and 400 μg/mL Geneticin. Before the assay, cells were induced with doxycycline at 1 μg/mL for 48 hours. On the experiment day, the induced cells were resuspended and plated onto coverslips at 5×10^5 cells/per 3.5 cm cell culture dish prior to use and cultured in medium without Blasticidin and Geneticin.
Electrophysiology recordings were performed in extracellular solution (ECS) containing (in mM): 132 NaCl, 4 KCl, 3 CaCl2), 0.5 MgCl2, 11.1 D-(+) glucose, and 10 HEPES (pH adjusted to 7.35 with NaOH, osmolarity 285-295 mOsm). Recording pipets contained (in mM) 10 NaCl, 10 KCl, 110 KF, 10 EGTA, and 10 HEPES (pH adjusted to 7.2 with KOH, osmolarity 285-295 mOsm).
Test and positive control (dofetilide) compounds were solubilized in 100% DMSO at 10 mM or 75 mM, respectively. Intermediate dilutions of compounds were prepared by serial dilution in 100% DMSO, after which working solutions were prepared in ECS (final DMSO concentration=0.1-1% v/v for test compounds, and 0.1% for dofetilide). […]
Whole cell recordings of voltage-clamped cells were performed at 35° C., with all working solutions heated to 34° C. in a water bath before administration. Current recordings were collected at 20 kHz with a 10 kHz filter and were compensated for capacitance. Cells were clamped at −60 mV, and leak current was tested at −80 mV for 500 ms. The hERG current was elicited by depolarizing at +30 mV for 4.8 seconds and then the voltage was taken back to −50 mV for 5.2 seconds to remove the inactivation and observe the deactivating tail current. Recordings were continued for 120 seconds to assess current stability. Only stable cells with recording parameters above threshold were used in compound administration experiments. Vehicle control was applied to cells to establish baseline. […] For dose response testing, test compound was applied to the cells cumulatively from low to high concentrations. Dofetilide at concentration of 450 nM was also applied to each cell post-hERG current measurement at the highest concentration of test compound as the internal low control for normalization of percentage inhibition. Dofetilide (5 doses) response was performed as positive hERG inhibition control for each batch of cells.
The following criteria were used to determine data acceptability: 1) Initial seal resistance>1 GΩ; 2) Leak currents<50% of the control peak tail currents at any time; 3) Normal test pulse current waveform (e.g., hERG peak tail) current amplitude greater than prepulse current amplitude and the peak tail amplitude>250 pA; 4) Membrane resistance Rm>500 MΩ; 5) Access resistance (Ra)<15 MΩ; 6) Apparent run-down of peak current<2.5% per min. Percent current inhibition was calculated as (1−(Peak tail currentcompound−Peak tail currentpositive control)/(Peak tail currentBlank vehicle−Peak tail currentpositive control))×100. PatchMaster software was used to extract the peak current from the original data. The dose response curve of test compounds was plotted with % inhibition against the concentration of test compounds using Graphpad Prism 8.0, and the data fit to a sigmoid dose-response curve with a variable slope.

SMILES	IC50 (human MRGPRX2) [µM]	IC50 (LAD-2 cells [1]) [µM]	IC50 (LAD-2 cells [2]) [µM]	activity at 0.25 µM (LAD-2 cells [2]; single point 250 nM, 0.5 μM Cortistatin-14, % control β-hexosaminidase activity) [%]	hERG Inhibition (%) @ 1 μM (hERG channel; 1 μM) [%]	hERG Inhibition (%) @ 20 μM (hERG channel; 20 μM) [%]
C[C@H](C(=O)Nc1cn(Cc2cc(F)cc(F)c2)cn1)N1CCC(F)(F)[C@@H](c2ccc(=O)n(C)c2)C1 (single isomer, unassigned) [Compound 68]	0.023	0.03	–	–	–	–
C[C@H](C(=O)Nc1cn(Cc2cc(F)cc(F)c2)cn1)N1CCC(F)(F)[C@@H](c2c[nH]c(=O)c(CO)c2)C1 (single isomer, unassigned) [Compound 72]	0.012	0.02	–	–	–	–
C[C@H](C(=O)Nc1cn(Cc2cc(F)cc(F)c2)c(C(F)(F)F)n1)N1CCC(F)(F)[C@H](c2ccc(=O)[nH]c2)C1 (single isomer, unassigned) [Compound 77]	0.018	0.051	–	–	–	–
C[C@@H](C(=O)Nc1cn(Cc2cc(F)cc(F)c2)c(Cl)n1)N1CCC(F)(F)[C@@H](c2cc[n+]([O-])cc2)C1 (single isomer, unassigned) [Compound 80]	0.755	> 3	–	–	–	–
C[C@H](C(=O)Nc1cn(Cc2cc(F)cc(F)c2)c(C(F)F)n1)N1CCC(F)(F)[C@@H](c2cc[n+]([O-])cc2)C1 (single isomer, unassigned) [Compound 83]	0.008	0.013	0.012	–	–	–
C[C@H](C(=O)Nc1nc2ccccc2s1)N1CCC(F)(F)[C@@H](c2cc[n+]([O-])cc2)C1 (single isomer, unassigned) [Compound 85]	0.028	0.1	–	–	–	–
C[C@@H](C(=O)Nc1cn2c(n1)CC[C@@H]2c1cc(F)cc(F)c1)N1CCC(F)(F)[C@@H](c2cc[n+]([O-])cc2)C1 (single isomer, unassigned) [Compound 489]	0.013	–	0.0095	14	12	47
O=C(Nc1cn(Cc2cc(F)cc(F)c2)cn1)[C@@H]1C(F)(F)C12CCC2 [Compound 29, (R)—N-(1-(3,5-difluorobenzyl)-1H-imidazol-4-yl)-2,2-difluorospiro[2.3]hexane-1-carboxamide]	0.22	0.212	–	–	–	–
C[C@@H](C(=O)Nc1cn(Cc2cc(F)c(F)c(F)c2)cn1)N1CCC(F)(F)[C@@H](c2cc[n+]([O-])cc2)C1 [Compound 34, 4-((S)-4,4-difluoro-1-((S)-1-oxo-1-((1-(3,4,5-trifluorobenzyl)-1H-imidazol-4-yl)amino)propan-2-yl)piperidin-3-yl)pyridine 1-oxide]	0.011	0.025	–	–	–	–
C[C@@H](C(=O)Nc1cn(Cc2cc(F)ccc2Cl)cn1)N1CCC(F)(F)[C@@H](c2cc[n+]([O-])cc2)C1 [Compound 35, 4-((S)-1-((S)-1-((1-(2-chloro-5-fluorobenzyl)-1H-imidazol-4-yl)amino)-1-oxopropan-2-yl)-4,4-difluoropiperidin-3-yl)pyridine 1-oxide]	0.0079	0.057	–	–	–	–
C[C@@H](C(=O)Nc1cn(Cc2cc(F)cc(F)c2F)cn1)N1CCC(F)(F)[C@@H](c2cc[n+]([O-])cc2)C1 [Compound 39, 4-((S)-4,4-difluoro-1-((S)-1-oxo-1-((1-(2,3,5-trifluorobenzyl)-1H-imidazol-4-yl)amino)propan-2-yl)piperidin-3-yl)pyridine 1-oxide]	0.0041	0.0033	–	–	–	–
C[C@@H](C(=O)Nc1cn(Cc2cc(F)cc(C#N)c2)cn1)N1CCC(F)(F)[C@@H](c2cc[n+]([O-])cc2)C1 [Compound 53, 4-((S)-1-((S)-1-((1-(3-cyano-5-fluorobenzyl)-1H-imidazol-4-yl)amino)-1-oxopropan-2-yl)-4,4-difluoropiperidin-3-yl)pyridine 1-oxide]	0.783	1.02	–	–	–	–
